Common to all, as to type: cell-based
The subject of one assay is N. gonorrhoeae WHO L. The assay is described as follows: Liquid broth MIC in Fastidious broth. Conditions: Neisseria gonorrhoeae; N. gonorrhoeae strain WHO L; Fastidious broth; read-out: Minimum Inhibitory Concentration, N. gonorrhoeae WHO L. The procedure, abridged: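 Colonies were swabbed from chocolate agar after 24 h growth and standardised by optical density at 600 nm. Compounds were serially diluted twofold in Fastidious broth, and bacteria added to give 5×10^5 CFU/mL. After about 24 h at 36 °C in 5% CO2, the lowest concentration allowing under 10% growth was taken as MIC.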

Assay [1] relates to K. pneumoniae UMM producing SHV-5 and KPC-2. The assay is described as follows: Broth microdilution MIC in CAMHB. As to conditions: Klebsiella pneumoniae, read-out: Minimum Inhibitory Concentration, K. pneumoniae UMM. A digest of the protocol:
(§1)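 Per CLSI broth microdilution, colonies were grown 3-5 h at 37° C in cation-adjusted Mueller Hinton broth, then diluted to a starting inoculum of 2-8×10^5 CFU/mL against 2-fold serial compound dilutions. Plates were incubated 16-20 h at 37° C, and MIC was read visually as the lowest concentration with no growth.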
A general note: Dilution methods test growth across graded concentrations, often in twofold steps.

Assay [2] has as its system P. aeruginosa (ΔmexAB-oprM). The assay is described as follows: Broth microdilution MIC in CAMHB. As to conditions: Pseudomonas aeruginosa, read-out: Minimum Inhibitory Concentration, P. aeruginosa ΔmexAB-OprM. A digest of the protocol: as §1
The subject of a further assay is P. aeruginosa ATCC 35151. In words: Broth microdilution MIC in CAMHB. Conditions: Pseudomonas aeruginosa, ATCC35151; MHB; hyper-permeable strain; read-out: Minimum Inhibitory Concentration, P. aeruginosa ATCC 35151. The procedure, abridged:
as §1

In another assay the test system is E. coli D22. The assay is described as follows: Broth microdilution MIC in CAMHB. Conditions: Escherichia coli; E. coli D22 (hyper-permeable); MHB; read-out: Minimum Inhibitory Concentration, E. coli D22. The procedure, abridged: as §1
Another assay relates to E. coli ATCC 25922. In words: Broth microdilution MIC in CAMHB. Conditions: Escherichia coli, ATCC25922; E. coli ATCC 25922; MHB; read-out: Minimum Inhibitory Concentration, E. coli 25922. The procedure, abridged:
as §1

Assay [3] relates to K. pneumoniae SI-117 producing VIM-1. In words: Broth microdilution MIC in CAMHB. Conditions: Klebsiella pneumoniae, read-out: Minimum Inhibitory Concentration, K. pneumoniae SI-117. The procedure, abridged: as §1
Another assay concerns E. coli 901C. In words: Broth microdilution MIC in CAMHB. As to conditions: Escherichia coli; E. coli 901C (hyper-permeable); MHB; read-out: Minimum Inhibitory Concentration, E. coli 901C. A digest of the protocol: as §1
Another assay has as its system E. coli AG100. In words: Broth microdilution MIC in CAMHB. As to conditions: Escherichia coli; E. coli AG100 (wild-type parent); MHB; read-out: Minimum Inhibitory Concentration, E. coli AG100. A digest of the protocol:
as §1

A further assay has as its system A. baumannii ATCC 19606. In words: Broth microdilution MIC in CAMHB. As to conditions: Acinetobacter baumannii, ATCC19606; MHB; read-out: Minimum Inhibitory Concentration, A. baumannii ATCC 19606. A digest of the protocol:
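CLSI microdilution; CAMHB; inoculum 2-8×10^5 CFU/mL from 3-5 h 37° C culture; 2-fold compound series; 16-20 h, 37° C; MIC = lowest well without visible growth.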

Assay [4] concerns K. pneumoniae 848844 producing SHV-11 and KPC-2. In words: Broth microdilution MIC in CAMHB. As to conditions: Klebsiella pneumoniae, read-out: Minimum Inhibitory Concentration, K. pneumoniae 848844. A digest of the protocol: as §1
A further assay concerns E. coli AG100A. In words: Broth microdilution MIC in CAMHB. As to conditions: Escherichia coli, read-out: Minimum Inhibitory Concentration, E. coli AG100A. A digest of the protocol: as §1
For a further assay, the system named is P. aeruginosa ATCC 27853. The assay is described as follows: Broth microdilution MIC in CAMHB. Conditions: Pseudomonas aeruginosa, ATCC27853; MHB; read-out: Minimum Inhibitory Concentration, P. aeruginosa ATCC 27853. The procedure, abridged:
as §1

In brackets after ≈: the same amount, converted by molar mass.

In the case of `CCN1CCN(C(=O)NC(C(=O)N[C@H]2Cc3cccc(C(=O)O)c3OB2O)c2cccc(CN)c2)C(=O)C1=O` (stereo partly drawn) [Example 108, (3R)-3-(2-(3-(aminomethyl)phenyl)-2-(4-ethyl-2,3-dioxopiperazine-1-carboxamido)acetamido)-2-hydroxy-3,4-dihydro-2H-benzo[e][1,2]oxaborinine-8-carboxylic acid], the MIC is > 64 µg/mL in the assay on N. gonorrhoeae WHO L; 32 to 64 µg/mL (≈ 59.6 to 119 µM) in assay [1]; 32 to 64 µg/mL (≈ 59.6 to 119 µM) in assay [2]; 8 to 16 µg/mL (≈ 14.9 to 29.8 µM) in the assay with P. aeruginosa ATCC 35151; 8 to 16 µg/mL (≈ 14.9 to 29.8 µM) in the assay with E. coli D22; 8 to 16 µg/mL (≈ 14.9 to 29.8 µM) with E. coli ATCC 25922. Further, the MIC was 32 to 64 µg/mL (≈ 59.6 to 119 µM) in assay [3]; 2 to 4 µg/mL (≈ 3.72 to 7.44 µM) in the assay with E. coli 901C; 32 to 64 µg/mL (≈ 59.6 to 119 µM) with E. coli AG100; > 128 µg/mL in the assay with A. baumannii ATCC 19606; > 128 µg/mL in assay [4]; 2 to 4 µg/mL (≈ 3.72 to 7.44 µM) with E. coli AG100A. The MIC in the assay on P. aeruginosa ATCC 27853 is > 128 µg/mL.
Take `NCCN1CCN(C(=O)NC(C(=O)N[C@H]2Cc3cccc(C(=O)O)c3OB2O)c2cc(F)c(O)cc2Cl)C(=O)C1=O` (stereo partly drawn) [Example 109, (3R)-3-(2-(4-(2-aminoethyl)-2,3-dioxopiperazine-1-carboxamido)-2-(2-chloro-5-fluoro-4-hydroxyphenyl)acetamido)-2-hydroxy-3,4-dihydro-2H-benzo[e][1,2]oxaborinine-8-carboxylic acid]: the MIC with N. gonorrhoeae WHO L is > 64 µg/mL; in assay [1], 32 to 64 µg/mL (≈ 54.1 to 108 µM); in assay [2], 8 to 16 µg/mL (≈ 13.5 to 27 µM); in the assay on P. aeruginosa ATCC 35151, 2 to 4 µg/mL (≈ 3.38 to 6.76 µM); with E. coli D22 it was 8 to 16 µg/mL (≈ 13.5 to 27 µM); in the assay on E. coli ATCC 25922, 32 to 64 µg/mL (≈ 54.1 to 108 µM). For the same compound, the MIC in assay [3] was > 128 µg/mL; with E. coli 901C it was 2 to 4 µg/mL (≈ 3.38 to 6.76 µM); with E. coli AG100, > 128 µg/mL; in the assay on A. baumannii ATCC 19606, > 128 µg/mL; in assay [4], > 128 µg/mL; in the assay with E. coli AG100A, 8 to 16 µg/mL (≈ 13.5 to 27 µM). Besides, in the assay on P. aeruginosa ATCC 27853, the MIC is > 128 µg/mL.
For the compound `CCN1CCN(C(=O)NC(C(=O)N[C@H]2Cc3cccc(C(=O)O)c3OB2O)c2cncc(O)c2)C(=O)C1=O` (stereo partly drawn) [Example 112, (3R)-3-(2-(4-ethyl-2,3-dioxopiperazine-1-carboxamido)-2-(5-hydroxypyridin-3-yl)acetamido)-2-hydroxy-3,4-dihydro-2H-benzo[e][1,2]oxaborinine-8-carboxylic acid], the MIC in the assay with N. gonorrhoeae WHO L was > 64 µg/mL; in assay [1], 32 to 64 µg/mL (≈ 60.9 to 122 µM); in [2] it was 8 to 16 µg/mL (≈ 15.2 to 30.5 µM); in the assay on P. aeruginosa ATCC 35151, 2 to 4 µg/mL (≈ 3.81 to 7.61 µM); in the assay with E. coli D22 it was 2 to 4 µg/mL (≈ 3.81 to 7.61 µM); in the assay on E. coli ATCC 25922, 32 to 64 µg/mL (≈ 60.9 to 122 µM). In addition, the MIC was > 128 µg/mL in [3]; 0.5 to 1 µg/mL (≈ 0.952 to 1.9 µM) in the assay on E. coli 901C; 32 to 64 µg/mL (≈ 60.9 to 122 µM) with E. coli AG100; > 128 µg/mL in the assay with A. baumannii ATCC 19606; > 128 µg/mL in [4]; 2 to 4 µg/mL (≈ 3.81 to 7.61 µM) with E. coli AG100A. Moreover, the MIC in the assay with P. aeruginosa ATCC 27853 was > 128 µg/mL.
For the compound `CCN1CCN(C(=O)NC(C(=O)N[C@H]2Cc3cccc(C(=O)O)c3OB2O)c2cccc(C(=O)O)c2)C(=O)C1=O` (stereo partly drawn) [Example 113, (3R)-3-(2-(3-carboxyphenyl)-2-(4-ethyl-2,3-dioxopiperazine-1-carboxamido)acetamido)-2-hydroxy-3,4-dihydro-2H-benzo[e][1,2]oxaborinine-8-carboxylic acid], the MIC in the assay on N. gonorrhoeae WHO L is > 64 µg/mL; in assay [1], 32 to 64 µg/mL (≈ 57.9 to 116 µM); in assay [2] it was 8 to 16 µg/mL (≈ 14.5 to 29 µM); in the assay on P. aeruginosa ATCC 35151 it was 0.5 to 1 µg/mL (≈ 0.905 to 1.81 µM); in the assay with E. coli D22, 2 to 4 µg/mL (≈ 3.62 to 7.24 µM); in the assay on E. coli ATCC 25922, 32 to 64 µg/mL (≈ 57.9 to 116 µM). Moreover, the MIC in [3] is > 128 µg/mL; in the assay on E. coli 901C, < 0.25 µg/mL; with E. coli AG100, 32 to 64 µg/mL (≈ 57.9 to 116 µM); in the assay with A. baumannii ATCC 19606, > 128 µg/mL; in [4], > 128 µg/mL; in the assay on E. coli AG100A it was 2 to 4 µg/mL (≈ 3.62 to 7.24 µM). The MIC in the assay with P. aeruginosa ATCC 27853 is > 128 µg/mL.

The values are drawn from patent publication US20230114728A1 (Venatorx Pharmaceuticals, Inc., priority 2019, published 2023).
